Test results as given in PubChem BioAssay AID2060899 (Molecular Pharmacology Branch, DTP, NCI, 2025).

System: 565726-208-R1-J5-PDC complex spheroids, growth inhibition
Assay: Anticancer human tumor 565726-208-R1-J5-PDC patient-derived pancreatic adenocarcinoma cell line growth inhibition [RAS]
Details: for viability, T/C: stronger effect = lower value
How it was run: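 Tumour cells grown as complex spheroids with HUVEC endothelial cells and mesenchymal stem cells, treated with RAS pathway inhibitor combinations. Each agent spans half-log steps from near clinical Cmax, or 10 microM where Cmax is unknown.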

[1] = curve of first compound, second compound 0.000949 µM
[2] = curve of first compound, second compound 0.003 µM
[3] = curve of first compound, second compound 0.00949 µM
[4] = curve of first compound, second compound 0.03 µM
[5] = curve of first compound, second compound 0.0949 µM
[6] = curve of first compound, second compound 0.3 µM
[7] = second compound 0.000949 µM, first compound 0.0316 µM
[8] = second compound 0.000949 µM, first compound 0.1 µM
[9] = second compound 0.000949 µM, first compound 0.316 µM
[10] = second compound 0.000949 µM, first compound 1 µM
[11] = second compound 0.000949 µM, first compound 3.16 µM
[12] = second compound 0.000949 µM, first compound 10 µM
[13] = second compound 0.003 µM, first compound 0.0316 µM
[14] = second compound 0.003 µM, first compound 0.1 µM
[15] = second compound 0.003 µM, first compound 0.316 µM
[16] = second compound 0.003 µM, first compound 1 µM
[17] = second compound 0.003 µM, first compound 3.16 µM
[18] = second compound 0.003 µM, first compound 10 µM
[19] = second compound 0.00949 µM, first compound 0.0316 µM
[20] = second compound 0.00949 µM, first compound 0.1 µM
[21] = second compound 0.00949 µM, first compound 0.316 µM
[22] = second compound 0.00949 µM, first compound 1 µM
[23] = second compound 0.00949 µM, first compound 3.16 µM
[24] = second compound 0.00949 µM, first compound 10 µM
[25] = second compound 0.03 µM, first compound 0.0316 µM
[26] = second compound 0.03 µM, first compound 0.1 µM
[27] = second compound 0.03 µM, first compound 0.316 µM
[28] = second compound 0.03 µM, first compound 1 µM
[29] = second compound 0.03 µM, first compound 3.16 µM
[30] = second compound 0.03 µM, first compound 10 µM
[31] = second compound 0.0949 µM, first compound 0.0316 µM
[32] = second compound 0.0949 µM, first compound 0.1 µM
[33] = second compound 0.0949 µM, first compound 0.316 µM
[34] = second compound 0.0949 µM, first compound 1 µM
[35] = second compound 0.0949 µM, first compound 3.16 µM
[36] = second compound 0.0949 µM, first compound 10 µM
[37] = second compound 0.3 µM, first compound 0.0316 µM
[38] = second compound 0.3 µM, first compound 0.1 µM
[39] = second compound 0.3 µM, first compound 0.316 µM
[40] = second compound 0.3 µM, first compound 1 µM
[41] = second compound 0.3 µM, first compound 3.16 µM
[42] = second compound 0.3 µM, first compound 10 µM
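Further: spheroids exposed to compounds for seven days before readout.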
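Wherever viability, T/C is given: 100% = DMSO vehicle control viability.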

CC1(C)CCC(Nc2ncc(C(F)(F)F)c(-c3c[nH]c4c(P(C)(C)=O)c(C#N)ccc34)n2)CN1 (centres undefined) + C=CC(=O)N1CCN(c2nc(OCC3CCCN3C)nc3c(F)c(-c4nc(N)cc(C)c4C(F)(F)F)c(Cl)cc23)C(C)C1
IC50 (curve of first compound, second compound 0.00316 µM): 6.76 nM | IC50 (curve of first compound, second compound 0.01 µM): 7.74 nM | IC50 (curve of first compound, second compound 0.0316 µM): 5.42 nM | IC50 (curve of first compound, second compound 0.1 µM): 5.76 nM | IC50 (curve of first compound, second compound 0.316 µM): 6.16 nM | IC50 (curve of first compound, second compound 1 µM): 6.81 nM | viability, T/C (second compound 0.00316 µM, first compound 0.000949 µM): 133% | viability, T/C (second compound 0.00316 µM, first compound 0.003 µM): 73.7% | viability, T/C (second compound 0.00316 µM, first compound 0.00949 µM): 40.1% | viability, T/C (second compound 0.00316 µM, first compound 0.03 µM): 40.4% | viability, T/C (second compound 0.00316 µM, first compound 0.0949 µM): 41.2% | viability, T/C (second compound 0.00316 µM, first compound 0.3 µM): 37.3% | viability, T/C (second compound 0.01 µM, first compound 0.000949 µM): 136% | viability, T/C (second compound 0.01 µM, first compound 0.003 µM): 74.6% | viability, T/C (second compound 0.01 µM, first compound 0.00949 µM): 46% | viability, T/C (second compound 0.01 µM, first compound 0.03 µM): 34.2% | viability, T/C (second compound 0.01 µM, first compound 0.0949 µM): 41.3% | viability, T/C (second compound 0.01 µM, first compound 0.3 µM): 39.9% | viability, T/C (second compound 0.0316 µM, first compound 0.000949 µM): 127% | viability, T/C (second compound 0.0316 µM, first compound 0.003 µM): 65.8% | viability, T/C (second compound 0.0316 µM, first compound 0.00949 µM): 34.2% | viability, T/C (second compound 0.0316 µM, first compound 0.03 µM): 28.4% | viability, T/C (second compound 0.0316 µM, first compound 0.0949 µM): 39.7% | viability, T/C (second compound 0.0316 µM, first compound 0.3 µM): 37.7% | viability, T/C (second compound 0.1 µM, first compound 0.000949 µM): 143% | viability, T/C (second compound 0.1 µM, first compound 0.003 µM): 67.7% | viability, T/C (second compound 0.1 µM, first compound 0.00949 µM): 33.7% | viability, T/C (second compound 0.1 µM, first compound 0.03 µM): 36.8% | viability, T/C (second compound 0.1 µM, first compound 0.0949 µM): 39% | viability, T/C (second compound 0.1 µM, first compound 0.3 µM): 36.5% | viability, T/C (second compound 0.316 µM, first compound 0.000949 µM): 130% | viability, T/C (second compound 0.316 µM, first compound 0.003 µM): 67.3% | viability, T/C (second compound 0.316 µM, first compound 0.00949 µM): 40.2% | viability, T/C (second compound 0.316 µM, first compound 0.03 µM): 32.5% | viability, T/C (second compound 0.316 µM, first compound 0.0949 µM): 38% | viability, T/C (second compound 0.316 µM, first compound 0.3 µM): 34.6% | viability, T/C (second compound 1 µM, first compound 0.000949 µM): 140% | viability, T/C (second compound 1 µM, first compound 0.003 µM): 70.2% | viability, T/C (second compound 1 µM, first compound 0.00949 µM): 41.7% | viability, T/C (second compound 1 µM, first compound 0.03 µM): 38.9% | viability, T/C (second compound 1 µM, first compound 0.0949 µM): 36.5% | viability, T/C (second compound 1 µM, first compound 0.3 µM): 38.9%

CC1(O)CCCC1n1c(=O)c(C(F)F)cc2cnc(NC3CCN(S(C)(=O)=O)CC3)nc21 (centres undefined) + CCn1c(-c2cc(N3CCN(C)CC3)cnc2C(C)OC)c2c3cc(ccc31)-c1csc(n1)CC(NC(=O)C1CC1C)C(=O)N1CCCC(N1)C(=O)OCC(C)(C)C2
IC50 [1]: 1010 nM | IC50 [2]: < 31.6 nM | IC50 [3]: < 31.6 nM | IC50 [4]: < 31.6 nM | IC50 [5]: < 31.6 nM | IC50 [6]: < 31.6 nM | viability, T/C [7]: 58% | viability, T/C [8]: 46.6% | viability, T/C [9]: 47.6% | viability, T/C [10]: 50.4% | viability, T/C [11]: 33.1% | viability, T/C [12]: 3.21% | viability, T/C [13]: 48.5% | viability, T/C [14]: 45.7% | viability, T/C [15]: 43.9% | viability, T/C [16]: 37.1% | viability, T/C [17]: 26.5% | viability, T/C [18]: 2.82% | viability, T/C [19]: 41.4% | viability, T/C [20]: 36.7% | viability, T/C [21]: 37.6% | viability, T/C [22]: 31.7% | viability, T/C [23]: 25% | viability, T/C [24]: 3.34% | viability, T/C [25]: 34.2% | viability, T/C [26]: 29.8% | viability, T/C [27]: 31.3% | viability, T/C [28]: 31.2% | viability, T/C [29]: 17.3% | viability, T/C [30]: 3.06% | viability, T/C [31]: 25.7% | viability, T/C [32]: 25.4% | viability, T/C [33]: 26% | viability, T/C [34]: 24.2% | viability, T/C [35]: 15.3% | viability, T/C [36]: 2.88% | viability, T/C [37]: 19.9% | viability, T/C [38]: 25.7% | viability, T/C [39]: 22% | viability, T/C [40]: 24.2% | viability, T/C [41]: 14.6% | viability, T/C [42]: 3.06%

C[C@@H](NC(=O)c1ncnc(N)c1Cl)c1ncc(C(=O)Nc2cc(C(F)(F)F)c(Cl)cn2)s1 + CCn1c(-c2cccnc2C(C)OC)c2c3cc(ccc31)N1CCOC(CC(NC(=O)C(C(C)C)N(C)C(=O)C3(F)CCN(C(=O)C#CC(C)(C)N(C)C)CC3)C(=O)N3CCCC(N3)C(=O)OCC(C)(C)C2)C1
IC50 [1]: > 10000 nM | IC50 [2]: > 10000 nM | IC50 [3]: > 10000 nM | IC50 [4]: > 10000 nM | IC50 [5]: > 10000 nM | IC50 [6]: > 10000 nM | viability, T/C [7]: 111% | viability, T/C [8]: 109% | viability, T/C [9]: 113% | viability, T/C [10]: 103% | viability, T/C [11]: 98.1% | viability, T/C [12]: 83.3% | viability, T/C [13]: 118% | viability, T/C [14]: 111% | viability, T/C [15]: 107% | viability, T/C [16]: 109% | viability, T/C [17]: 98% | viability, T/C [18]: 79.8% | viability, T/C [19]: 108% | viability, T/C [20]: 107% | viability, T/C [21]: 104% | viability, T/C [22]: 114% | viability, T/C [23]: 105% | viability, T/C [24]: 82.2% | viability, T/C [25]: 102% | viability, T/C [26]: 110% | viability, T/C [27]: 112% | viability, T/C [28]: 112% | viability, T/C [29]: 105% | viability, T/C [30]: 80.9% | viability, T/C [31]: 108% | viability, T/C [32]: 101% | viability, T/C [33]: 99.7% | viability, T/C [34]: 108% | viability, T/C [35]: 90.1% | viability, T/C [36]: 90.6% | viability, T/C [37]: 91.3% | viability, T/C [38]: 98.7% | viability, T/C [39]: 95% | viability, T/C [40]: 107% | viability, T/C [41]: 90% | viability, T/C [42]: 77.5%

C=CC(=O)N1CCN(c2nc(OCC3CCCN3C)nc3c(F)c(-c4nc(N)cc(C)c4C(F)(F)F)c(Cl)cc23)C(C)C1 (centres undefined)
viability, T/C (compound 0.1 µM): 104% [middle of 12 runs] | IC50 (compound alone, run of 07/15/2024): > 1000 nM | IC50 (curve of compound): > 1000 nM
